Results reported in patent EP1743641A1, “Use of substituted pyrazoline compounds for the treatment of food disorders, including obesity or metabolic syndrome in patients with developed diabetes” (LABORATORIOS DEL DR. ESTEVE, S.A., priority 2005, dated 2007).
pKi: −log10 of the molar value.

Legend:
[1] = biological target: T1, CB1-Receptor (Homo sapiens, UniProt P21554); assay: In-vitro determination of affinity to CB1 receptor (radioligand [3H]-CP55940); type: binding
T1 construct: purchased Receptor Biology, Inc
T1 sequence (P21554 whole entry): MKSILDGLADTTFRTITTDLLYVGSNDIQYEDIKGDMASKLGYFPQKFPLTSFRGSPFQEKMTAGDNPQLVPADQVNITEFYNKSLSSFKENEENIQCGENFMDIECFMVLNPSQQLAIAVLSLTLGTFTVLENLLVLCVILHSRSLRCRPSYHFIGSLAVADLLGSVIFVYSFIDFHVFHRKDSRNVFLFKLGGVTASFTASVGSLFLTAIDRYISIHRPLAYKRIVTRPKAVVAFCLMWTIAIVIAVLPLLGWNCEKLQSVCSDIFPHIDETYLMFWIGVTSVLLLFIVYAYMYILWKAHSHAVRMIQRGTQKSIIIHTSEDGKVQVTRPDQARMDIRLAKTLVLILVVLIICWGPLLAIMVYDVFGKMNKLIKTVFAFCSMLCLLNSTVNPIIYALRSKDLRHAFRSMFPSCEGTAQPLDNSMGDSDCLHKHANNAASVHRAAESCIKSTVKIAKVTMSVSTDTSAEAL
Method: (§1) The in-vitro determination of the affinity of the substituted pyrazoline compounds to CB1/CB2-Rezeptors is carried out as described in the publication of Ruth A. Ross, Heather C. Brockie et al., "Agonist-inverse agonist characterization at CB1 and CB2 cannabinoid receptors of L-759633, L759656 and AM630", British Journal of Pharmacology, 126, 665-672, (1999), whereby the transfected human CB1 and CB2 receptors of Receptor Biology, Inc. are used. The radioligand used for both receptors is [^3H]-CP55940. The respective parts of the description is hereby incorporated by reference and forms part of the present disclosure.
The affinity of the inventive substituted pyrazoline compounds to CB1/CB2 receptors was determined as described above.

[2] = biological target: T2, CB2-Receptor (Homo sapiens, UniProt P34972); assay: In-vitro determination of affinity to CB2 receptor (radioligand [3H]-CP55940); type: binding
T2 construct: purchased Receptor Biology, Inc
T2 sequence (P34972 whole entry): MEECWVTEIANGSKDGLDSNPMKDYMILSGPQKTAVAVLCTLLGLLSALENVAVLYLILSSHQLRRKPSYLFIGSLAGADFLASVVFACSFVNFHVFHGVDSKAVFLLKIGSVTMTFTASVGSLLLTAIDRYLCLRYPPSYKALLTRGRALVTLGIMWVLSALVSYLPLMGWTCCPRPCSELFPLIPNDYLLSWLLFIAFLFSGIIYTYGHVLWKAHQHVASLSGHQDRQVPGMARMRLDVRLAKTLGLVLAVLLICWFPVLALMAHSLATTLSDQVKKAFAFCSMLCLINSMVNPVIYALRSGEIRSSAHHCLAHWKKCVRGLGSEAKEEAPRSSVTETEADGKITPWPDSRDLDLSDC
Method: as §1, with “disclosure. The affinity of the inventive substituted pyrazoline compounds to CB1/CB2 receptors was determined as described above.” for “disclosure.”

[3] = system: cannabinoid receptors; assay: Mouse tetrad model, agonistic effect; type: in vivo, Male NMRI mice; design: key to Agonistic effect D: Sedation: % of sedation = arithmetic mean score/3 × 100; settings: 5 mg/kg i.v., mice
Excerpt: (§2) Substances with affinity for cannabinoid receptors are known to produce a wide range of pharmacological effects. It is also known that intravenous administration of a substance with affinity for cannabinoid receptors in mice produces analgesia , hypothermia, sedation and catalepsy. Individually, none of these effects can be considered as proof that a tested substance has affinity for cannabinoid-receptors, since all of these effects are common for various classes of centrally active agents. However, substances, which show all of these effects, i.e. substances that are active in this so-called tetrad model are considered to have affinity for the cannabinoid receptors. It has further been shown that cannabinoid receptor antagonists are higly effective in blocking the effects of a cannabinoid agonist in the mouse tetrad model.
(§3) The tetrad model is described, for example, in the publication of A. C. Howlett et al, International Union of Pharmacology XXVII. Classification of Cannabinoid e cept σs, Pharmacol Rev 54, 161-202 , 2002 and David R. Compton et al., "In-vivo Characterization of a Specific Cannabinoid Receptor Antagonist (SR141716A) :Inhibition of Tetrahydrocannbinol- induced Responses and Apparent Agonist Activity", J. Pharmacol. Exp. Ther. 277, 2, 586-594, 1996. The corresponding parts of the description are hereby incorporated by reference.
(§4) Male NMRI mice with a weight of 20-30 g (Harlan, Barcelona, Spain) are used in all of the following experiments.
(§5) Before testing in the behavioral procedures given below, mice are acclimatized to the experimental setting. Pre-Treatment control values are determined for analgesia hot plate latency (in seconds), rectal temperature, sedation and catalepsy.
(§6) In order to determine the agonistic activty of the substance to be tested, the mice are injected intravenously with the substance to be tested or the vehicle alone. 15 minutes after injection, latency in hot plate analgesia is measured. Rectal temperature, sedation and catalepsy are measured 20 minutes after injection.
(§7) The hot plate analgesia is determined according to the method described in Woolfe D. et al. "The evaluation of analgesic action of pethidine hydrochloride (Demerol)", J. Pharmacol. Exp. Ther. 80, 300-307,1944. The respective description is hereby incorporated by reference and forms part of the present disclosure.
(§8) The mice are placed on a hot plate (Harvard Analgesimeter) at 55 ± 0.5 °C until they show a painful sensation by licking their paws or jumping and the time for these sensations to occur is recorded. This reading is considered the basal value (B). The maximum time limit the mice are allowed to remain on the hot plate in absence of any painful response is 40 seconds in order to prevent skin damage. This period is called the cut-off time (PC).
(§9) Fifteen minuts after the administration of the substance to be tested, the mice are again placed on the hot plate and the afore described procedure is repeated. This period is called the post-treatment reading (PT).
(§10) %MPEof Analgesia = (PT−B)/(PC−B) × 100 [formula]
(§11) Sedation and ataxia is determined according to the method described in Desmet L. K. C. et al. "Anticonvulsive properties of Cinarizine and Flunarizine in Rats and Mice", Arzneim. -Forsch. (Frug Res) 25, 9, 1975. The respective description is hereby incorporated by reference and forms part of the present disclosure.
(§12) The chosen scoring system is
%of sedation = arithmetic mean/3 × 100 [formula]
Hypothermia is determined according to the method described in David R. Compton et al. "In-vivo Characterization of a Specific Cannabinoid Receptor Antagonist (SR141716A) Inhibition of Tetrahydrocannbinol- induced Responses and Apparent Agonist Activity", J. Pharmacol Exp Ther. 277 , 2, 586-594, 1996. The respective description is hereby incorporated by reference and forms part of the present disclosure. […]

[4] = system: cannabinoid receptors; assay: Mouse tetrad model, antagonistic effect against Win 55212-2; type: in vivo, Male NMRI mice; design: unit not given here; settings: 5 mg/kg i.v. prior to Win 55212-2 in a dose of 1,25mg/kg i.v., mice
Excerpt: as §2, §3, §4, §5, §6
In order to determine the antagonistic activity the identical procedure is used as for the determination of the agonistic effects, but with the difference that the substance to be evaluated for its antagonistic activity is injectected 5 minutes before the intravenous injection of 1.25 mg/kg Win-55,212 a known cannabinoid-receptor agonist.
as §7, §8, §9, §10, §11, §12
%of sedation = arithmetic mean/3 × 100 [formula] […]

Compound | pKi [1] | pKi [2] | Agonistic effect A: Hot-Plate test [3] | Agonistic effect B: Hypothermia [3] | Agonistic effect C: Catalepsy [3] | Agonistic effect D: Sedation [3] | Antagonistic Effect A: Hot-Plate test [4] | Antagonistic Effect B: Hypothermia [4] | Antagonistic Effect C: Catalepsy [4] | Antagonistic Effect D: Sedation [4]
O=C(NN1CCCCC1)C1=NN(c2ccc(Cl)cc2Cl)C(c2ccc(Cl)cc2)C1 (stereo not shown) [Example 1, N-piperidinyl-5-(4-chlorophenyl)-1-(2,4-dichlorophenyl)-4,5-dihydro-1H-pyrazole-3-carboxamide] | > 7.60 | < 6.00 | 0 | 0 | 0 | 0 | 74 | 100 | 100 | 100
O=C(C1=NN(c2ccc(Cl)cc2Cl)C(c2ccc(Cl)cc2)C1)N1CCCCC1 (stereo not shown) [Example 5, [5-(4-Chloro-phenyl)-1-(2,4-dichloro-phenyl)-4,5-dihydro-1H-pyrazol-3-yl]-piperidin-1-yl-methanone] |  | ~6.00 | 0 | 50 | 0 | 0 | 50 | 40 | 20 | 20
